Experimental findings from patent US20260185025A1, “MICROPHYSIOLOGICAL PLATFORM WITH EMBEDDED ELECTRODES FOR 3D TISSUE CULTURE” (VALO HEALTH, INC., priority 2020, published 2026) are described below.

The assay has as its system human engineered cardiac tissues (human iPSC derived cardiomyocytes co-cultured with human cardiac fibroblasts). The experiment in a line: Drug testing of engineered cardiac tissues in Biowire II 96-well plate under electrical pacing (contractile dynamics by wire displacement). The class given is cell-based. Particulars: day 19 tissues, n=2 (FIG. 7H). On the procedure: To generate cardiac tissues, human iPSC derived cardiomyocytes co-cultured with human cardiac fibroblasts were seeded with hydrogel in the 96-well plate device. Tissue compaction in the first seven days was observed (FIG. 7A, FIG. 7B), with dramatic change in the first two days followed by stabilization after day 3. Electrical field stimulation of cardiac tissues was initiated at day 7 and continued for the additional 12 days. […] Thapsigargin (50×10^-6 m), an inhibitor of sarcoplasmic reticulum function in cardiomyocytes, was added in the presence of electrical pacing (1.5 Hz), resulting in a prolonged tissue contraction and relaxation time (FIG. 7H). […] Predominantly ventricular cardiomyocytes (CMs) were derived from the hiPSC line BJ1D, using monolayer differentiation protocols as previously described. At day 21 of differentiation, cardiomyocytes were disassociated into single cells with previously established methods. Briefly, 1 mg mL^-1 of collagenase type II (Worthington, LS004205) in Hank's Balanced Salt Solution was added to the monolayer cardiomyocyte cultures and incubated overnight at room temperature. The disassociated cells were mixed with cardiac fibroblasts (Lonza, NHCF-V) in a 10:1 cell number ratio. The mixed cells were pelleted and remixed in collagen hydrogel at 5.5×10^7 cells mL^-1. The cell-gel mixture was seeded at […] per microwell. A droplet of media was placed on the wall of the well to keep the moisture until gelation was complete. The plate was incubated at 37° C. and 5% CO2 for 10 min followed by media addition. […] Average tissue width and width of the tissue (Tw), attachment site to the polymer sensor were measured using bright field images at the relaxed state. Passive displacement of polymer sensors was assessed in blue channel. […] The final readouts for the total and passive forces were interpolated according to the Tw and custom tip sizes. […] With built-in force sensor and electrodes, tissues were able to be assessed in situ in terms of their contractile dynamics and drug responses. […] The videos were analyzed using the custom MATLAB software. […]

[1] abbreviates: 50×10^−6 m, electrical pacing 1.5 Hz, video 15 min after addition.

As for `C/C=C(/C)C(=O)O[C@H]1C(C)=C2[C@H]([C@@H]1OC(=O)CCCCCCC)[C@@](C)(OC(C)=O)C[C@H](OC(=O)CCC)[C@@]1(O)[C@H]2OC(=O)[C@@]1(C)O` [Thapsigargin], under setting [1], the tissue contraction time entry is “prolonged” and the tissue relaxation time entry is on record as “prolonged”. Moreover, the “frequency of tissue beating” value (thapsigargin 50 µM, constant stimulation frequency 1.5 Hz) is “decreased by half”.
